According to ChEMBL document CHEMBL3621053, “Isoxazole derivatives of 6-fluoro-N-(6-methoxybenzo[d]thiazol-2-yl)benzo[d]thiazol-2-amine and N-(pyrimidin-2-yl)benzo[d]thiazol-2-amine: regulation of cell cycle and apoptosis by p53 activation via mitochondrial-dependent pathways” (Medchemcomm, 2014):
Calls of active or inactive are those of the source. No cut-off for these calls is given here.

Columns and labels:
[1] = Anticancer activity against human COLO205 cells by MTT assay; format: functional, cell-based; settings: COLO 205
[2] = tested on: U-937; experiment: Anticancer activity against human U937 cells by MTT assay; format: functional, cell-based
[3] = tested on: MCF7; experiment: Anticancer activity against human MCF7 cells by MTT assay; format: functional, cell-based
[4] = tested on: A549; experiment: Anticancer activity against human A549 cells by MTT assay; format: functional, cell-based
[5] = tested on: COLO 205; experiment: Induction of DNA damage in human COLO205 cells assessed as tail DNA formation by alkaline comet assay (reference value: 0%); format: functional
[6] = tested on: COLO 205; experiment: Induction of cell cycle arrest in human COLO205 cells assessed as accumulation at G2/M phase after 24 hrs by flow cytometry; format: functional, cell-based
[7] = Decrease in Bcl2 expression in human COLO205 cells after 24 hrs by western blot analysis; format: functional, cell-based; settings: COLO 205
[8] = tested on: COLO 205; experiment: Increase in Bax expression in human COLO205 cells after 24 hrs by western blot analysis; format: functional, cell-based
[9] = Decrease in cyclin B1 expression in human COLO205 cells by western blot analysis; format: functional, cell-based; settings: COLO 205
[10] = tested on: COLO 205; experiment: Effect on CDK1 expression in human COLO205 cells by western blot analysis; format: functional, cell-based
[11] = tested on: COLO 205; experiment: Increase in Apaf1 expression in human COLO205 cells after 24 hrs by western blot analysis; format: functional, cell-based
[12] = tested on: COLO 205; experiment: Increase in procaspase-3 expression in human COLO205 cells after 24 hrs by western blot analysis; format: functional, cell-based
[13] = tested on: COLO 205; experiment: Increase in active caspase-3 expression in human COLO205 cells after 24 hrs by western blot analysis; format: functional, cell-based
[14] = tested on: COLO 205; experiment: Increase in caspase-9 expression in human COLO205 cells after 24 hrs by western blot analysis; format: functional, cell-based
[15] = Decrease in NFkappaB expression in human COLO205 cells after 24 hrs by western blot analysis; format: functional, cell-based; settings: COLO 205

## FC(F)(F)Sc1ccc(-c2cc(CN(c3ncccn3)c3nc4ccccc4s3)on2)cc1
[1]
  IC50: 10.1 µM
[2]
  IC50: 19.4 µM
[3]
  IC50: 17.2 µM
[4]
  IC50: 29.8 µM

## Fc1ccccc1-c1cc(CN(c2ncccn2)c2nc3ccccc3s2)on1
[1]
  IC50: 13.2 µM
[2]
  IC50: 27.6 µM
[3]
  IC50: 19.5 µM
[4]
  IC50: 25.4 µM

## COc1ccc2nc(N(Cc3cc(-c4cc(OC)c(OC)c(OC)c4)no3)c3nc4ccc(F)cc4s3)sc2c1
[1]
  IC50: 11.8 µM
[2]
  IC50: 44 µM
[3]
  IC50: 26.6 µM
[4]
  IC50: 61.9 µM

## C#CCN(c1ncccn1)c1nc2ccccc2s1
[1]
  IC50: 12 µM
[2]
  IC50: 15.7 µM
[3]
  IC50: 18.3 µM
[4]
  IC50: 17.4 µM
[5]
  Activity: 4.194%
[6]
  Activity: Active
[7]
  Activity: Active
[8]
  inhibition: Active

## C#CCN(c1nc2ccc(F)cc2s1)c1nc2ccc(OC)cc2s1
[1]
  IC50: 30.3 µM
[2]
  IC50: 24.9 µM
[3]
  IC50: 27.8 µM
[4]
  IC50: 24.4 µM

## COc1cc(-c2cc(CN(c3ncccn3)c3nc4ccccc4s3)on2)cc(OC)c1OC
[1]
  IC50: 10.2 µM
[2]
  IC50: 26.1 µM
[3]
  IC50: 13.4 µM
[4]
  IC50: 28.4 µM

## COc1ccc(-c2cc(CN(c3ncccn3)c3nc4ccccc4s3)on2)cc1
[1]
  IC50: 5.04 µM
[2]
  IC50: 13.9 µM
[3]
  IC50: 30.7 µM
[4]
  IC50: 30.4 µM
[5]
  Activity: 17.72%
[6]
  Activity: Active
[9]
  inhibition: Active
[10]
  Activity: inactive
[11]
  Activity: Active
[12]
  Activity: Active
[13]
  Activity: Active
[14]
  Activity: Active
[15]
  inhibition: Active
[7]
  Activity: Active
[8]
  inhibition: Active

## COc1ccc2nc(N(Cc3cc(-c4ccc(Br)cc4)no3)c3nc4ccc(F)cc4s3)sc2c1
[1]
  IC50: 7 µM
[2]
  IC50: 34.9 µM
[3]
  IC50: 41.1 µM
[4]
  IC50: 32.7 µM

## COc1cc([C@@H]2c3cc4c(cc3[C@@H](O[C@@H]3O[C@@H]5CO[C@@H](C)O[C@H]5[C@H](O)[C@H]3O)[C@H]3COC(=O)[C@H]23)OCO4)cc(OC)c1O [ETOPOSIDE]
[1]
  IC50: 0.47 µM
[2]
  IC50: 10.1 µM
[3]
  IC50: 0.008 µM
[4]
  IC50: 4.7 µM
[5]
  Activity: 6.564%
[6]
  Activity: Active
[7]
  Activity: Active
[8]
  inhibition: Active

## COc1ccc(-c2cc(CN(c3nc4ccc(F)cc4s3)c3nc4ccc(OC)cc4s3)on2)cc1
[1]
  IC50: 11.4 µM
[2]
  IC50: 138 µM
[3]
  IC50: 32.4 µM
[4]
  IC50: 38.8 µM

## Brc1ccc(-c2cc(CN(c3ncccn3)c3nc4ccccc4s3)on2)cc1
[1]
  IC50: 8.82 µM
[2]
  IC50: 13.6 µM
[3]
  IC50: 21.1 µM
[4]
  IC50: 31.5 µM

## COc1ccc2nc(N(Cc3cc(-c4ccc(OC(F)(F)F)cc4)no3)c3nc4ccc(F)cc4s3)sc2c1
[1]
  IC50: 9.94 µM
[2]
  IC50: 23.1 µM
[3]
  IC50: 17.4 µM
[4]
  IC50: 37.1 µM

## COc1ccc2nc(N(Cc3cc(-c4ccc(SC(F)(F)F)cc4)no3)c3nc4ccc(F)cc4s3)sc2c1
[1]
  IC50: 11.1 µM
[2]
  IC50: 42.9 µM
[3]
  IC50: 14.1 µM
[4]
  IC50: 26.5 µM

## COc1ccc2nc(N(Cc3cc(-c4ccccc4F)no3)c3nc4ccc(F)cc4s3)sc2c1
[1]
  IC50: 13.4 µM
[2]
  IC50: 29.4 µM
[3]
  IC50: 28.5 µM
[4]
  IC50: 51.8 µM

## FC(F)(F)Oc1ccc(-c2cc(CN(c3ncccn3)c3nc4ccccc4s3)on2)cc1
[1]
  IC50: 5.69 µM
[2]
  IC50: 13.5 µM
[3]
  IC50: 14.8 µM
[4]
  IC50: 31.8 µM
